In patent publication US9321773B2, “Compounds” (Respivert Ltd, priority 2009, dated 2016):
Like-named read-outs stand apart in the source and are kept apart here.

What was measured:
recombinant PI3 kinase γ = recombinant PI3 kinase γ (Homo sapiens (Human), UniProt P48736); assay: Enzyme Inhibition Assay (HTRF PI3K enzyme assay, TR-FRET); assay type: biochemical
Outline: (§1)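 Recombinant PI3Kα, δ or γ incubated with PIP2 substrate and compound for 2 hr at RT. Stop solution with biotin-PIP3 and GST-GRP1 PH domain/Eu-anti-GST/SA-APC detection mix added, then 15-18 hr at RT. PIP3 formed reduces the TR-FRET signal.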

recombinant PI3 kinase α = recombinant PI3 kinase α (Homo sapiens (Human), UniProt P42336); assay: as above; assay type: biochemical
recombinant PI3 kinase α, sequence (P42336 whole entry): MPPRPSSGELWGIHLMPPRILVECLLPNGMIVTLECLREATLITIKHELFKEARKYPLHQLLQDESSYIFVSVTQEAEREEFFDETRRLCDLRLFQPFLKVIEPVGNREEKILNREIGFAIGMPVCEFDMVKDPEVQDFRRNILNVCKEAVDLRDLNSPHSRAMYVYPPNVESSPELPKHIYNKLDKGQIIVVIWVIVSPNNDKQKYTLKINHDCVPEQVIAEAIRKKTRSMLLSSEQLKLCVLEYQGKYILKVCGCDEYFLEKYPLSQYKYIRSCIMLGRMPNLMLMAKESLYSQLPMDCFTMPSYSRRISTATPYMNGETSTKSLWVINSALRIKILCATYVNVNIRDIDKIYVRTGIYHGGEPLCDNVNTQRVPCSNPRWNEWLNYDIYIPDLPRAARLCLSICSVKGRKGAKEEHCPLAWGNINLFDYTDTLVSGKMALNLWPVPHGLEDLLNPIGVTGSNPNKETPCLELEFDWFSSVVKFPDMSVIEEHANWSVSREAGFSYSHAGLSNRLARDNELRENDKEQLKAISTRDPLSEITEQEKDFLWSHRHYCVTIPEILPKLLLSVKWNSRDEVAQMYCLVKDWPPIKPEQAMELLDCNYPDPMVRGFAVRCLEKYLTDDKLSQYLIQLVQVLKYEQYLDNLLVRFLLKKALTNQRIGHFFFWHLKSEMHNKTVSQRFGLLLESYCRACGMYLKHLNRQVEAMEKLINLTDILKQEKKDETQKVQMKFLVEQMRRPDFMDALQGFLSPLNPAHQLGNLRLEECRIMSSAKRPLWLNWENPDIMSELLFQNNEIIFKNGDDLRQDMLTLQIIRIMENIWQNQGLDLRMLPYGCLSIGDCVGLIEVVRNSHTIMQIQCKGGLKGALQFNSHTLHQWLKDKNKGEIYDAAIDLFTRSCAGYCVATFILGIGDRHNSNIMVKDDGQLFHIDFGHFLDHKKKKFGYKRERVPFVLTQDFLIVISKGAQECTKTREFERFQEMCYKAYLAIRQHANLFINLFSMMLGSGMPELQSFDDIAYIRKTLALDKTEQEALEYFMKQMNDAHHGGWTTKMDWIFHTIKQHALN
recombinant PI3 kinase α, sequence (P27986 whole entry partner): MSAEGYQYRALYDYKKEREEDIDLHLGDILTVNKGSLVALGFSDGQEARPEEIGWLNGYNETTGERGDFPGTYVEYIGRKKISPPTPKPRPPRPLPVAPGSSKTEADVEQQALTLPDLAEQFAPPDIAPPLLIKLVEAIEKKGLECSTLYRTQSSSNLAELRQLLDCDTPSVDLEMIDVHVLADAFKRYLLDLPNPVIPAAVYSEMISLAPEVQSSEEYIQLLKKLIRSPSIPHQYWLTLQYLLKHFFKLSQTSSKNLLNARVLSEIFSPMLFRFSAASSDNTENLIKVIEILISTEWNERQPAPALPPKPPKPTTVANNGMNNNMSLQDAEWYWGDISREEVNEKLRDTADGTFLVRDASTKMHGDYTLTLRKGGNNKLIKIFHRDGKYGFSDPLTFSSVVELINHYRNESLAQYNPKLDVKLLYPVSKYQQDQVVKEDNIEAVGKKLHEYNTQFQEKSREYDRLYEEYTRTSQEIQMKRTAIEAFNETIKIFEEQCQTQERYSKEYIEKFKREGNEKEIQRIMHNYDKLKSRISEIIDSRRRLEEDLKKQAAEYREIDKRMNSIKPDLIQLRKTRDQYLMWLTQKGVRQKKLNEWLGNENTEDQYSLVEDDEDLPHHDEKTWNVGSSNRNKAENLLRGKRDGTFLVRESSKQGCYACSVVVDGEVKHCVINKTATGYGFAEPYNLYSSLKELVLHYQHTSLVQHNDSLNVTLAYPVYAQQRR
Outline: as §1

recombinant PI3 kinase δ = recombinant PI3 kinase δ (Homo sapiens (Human), UniProt O00329); assay: as above; assay type: biochemical
recombinant PI3 kinase δ, sequence (O00329 whole entry): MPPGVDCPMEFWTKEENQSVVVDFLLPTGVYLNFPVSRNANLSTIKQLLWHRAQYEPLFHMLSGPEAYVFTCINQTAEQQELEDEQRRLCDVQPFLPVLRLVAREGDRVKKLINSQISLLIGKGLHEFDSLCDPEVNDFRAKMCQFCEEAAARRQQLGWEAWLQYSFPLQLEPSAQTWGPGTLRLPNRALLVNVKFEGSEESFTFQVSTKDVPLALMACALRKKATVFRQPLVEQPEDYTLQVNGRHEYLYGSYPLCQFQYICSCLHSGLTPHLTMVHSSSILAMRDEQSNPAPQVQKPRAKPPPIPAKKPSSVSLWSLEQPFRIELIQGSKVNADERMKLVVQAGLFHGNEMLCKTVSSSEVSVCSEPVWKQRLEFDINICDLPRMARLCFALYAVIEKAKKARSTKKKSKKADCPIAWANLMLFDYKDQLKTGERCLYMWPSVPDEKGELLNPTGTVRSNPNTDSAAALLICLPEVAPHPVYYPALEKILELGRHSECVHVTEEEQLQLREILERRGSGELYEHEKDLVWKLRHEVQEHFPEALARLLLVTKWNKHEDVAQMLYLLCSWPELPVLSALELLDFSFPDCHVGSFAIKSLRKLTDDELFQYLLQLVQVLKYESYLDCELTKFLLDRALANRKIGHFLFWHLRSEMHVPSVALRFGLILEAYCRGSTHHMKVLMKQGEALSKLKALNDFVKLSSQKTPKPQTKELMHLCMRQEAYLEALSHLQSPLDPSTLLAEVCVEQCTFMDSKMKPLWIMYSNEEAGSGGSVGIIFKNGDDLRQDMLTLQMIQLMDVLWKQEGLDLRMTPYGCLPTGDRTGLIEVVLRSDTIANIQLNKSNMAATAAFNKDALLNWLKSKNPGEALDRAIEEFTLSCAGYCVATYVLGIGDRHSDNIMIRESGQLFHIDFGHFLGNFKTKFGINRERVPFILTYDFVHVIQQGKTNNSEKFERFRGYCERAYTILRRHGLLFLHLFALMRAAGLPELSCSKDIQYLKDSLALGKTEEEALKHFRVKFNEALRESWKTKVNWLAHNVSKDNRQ
recombinant PI3 kinase δ, sequence (P27986 whole entry partner): as the sequence (P27986 whole entry partner) above
Outline: as §1

[1] = system: H2O2 induced pAkt in D-U937 cells; assay: PI3Kδ Cell Based Assay (H2O2 induced pAkt); settings: Homo sapiens
Outline: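 U937 cells differentiated to macrophage-type cells with PMA (100 ng/mL, 48 to 72 hr), then stimulated with H2O2. pAkt and total Akt detected by antibody-based immunoassay. Ratio of pAkt to total Akt signal used; IC50 from concentration-response curves of serially diluted compounds.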

[2] = Stereochemical analysis by chiral stationary phase HPLC (atropisomerism); assay type: physicochemical; settings: for atropisomerism by chiral stationary phase HPLC: chiral stationary phase HPLC (16 different conditions for the examples)
Experimental: Each of these mobile phase are compatible with the column packings referred to above, providing sixteen different solvent and stationary phase permutations. Modifiers such as triethylamine (0.1%), formic acid (0.1%) may be added to improve the resolution
Semi-preparative Chiral Stationary Phase LC-UV was performed on a Gilson preparative modular system using a Daicel Chiralpak AD semi-prep column ([…], 20×250 mm) and a flow rate of 18 mL/min eluting with an isocratic method over 20 min using […] heptane:IPA and 0.1% triethylamine employing an injection volume of 1.0 mL.

[3] = system: PMA-differentiated U937 cells; assay: MTT Assay (cell viability); assay type: cell-based, Human; settings: percentage loss of cell viability; for Cell Viability MTT Assay in D-U937 cells at 4 hr: 4 hr in 5% FCS; for Cell Viability MTT Assay in D-U937 cells at 24 hr: 24 hr in 10% FCS
Outline: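 Differentiated U937 cells treated with compound for 4 hr (5% FCS) or 24 hr (10% FCS), then given MTT for 1 hr; formazan dissolved in DMSO and absorbance read at 550 nm. Viability loss expressed as % versus 0.5% DMSO vehicle.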

[4] = activity range, read-out: PI3 Kinase Inhibition IC50 values at stated Isozyme γ
[5] = activity range, read-out: PI3 Kinase Inhibition IC50 values at stated Isozyme α
[6] = activity range, read-out: PI3 Kinase Inhibition IC50 values at stated Isozyme δ
[7] = dU937, read-out: Cellular Activity IC50 values (H2O2 induced pAkt D-U937 Cells)
[8] = dU937, activity range, D-U937 cells, read-out: Cellular Activity IC50 values (H2O2 induced pAkt D-U937 Cells)

recombinant PI3 kinase γ, sequence (P48736 whole entry, the tested form may be a part): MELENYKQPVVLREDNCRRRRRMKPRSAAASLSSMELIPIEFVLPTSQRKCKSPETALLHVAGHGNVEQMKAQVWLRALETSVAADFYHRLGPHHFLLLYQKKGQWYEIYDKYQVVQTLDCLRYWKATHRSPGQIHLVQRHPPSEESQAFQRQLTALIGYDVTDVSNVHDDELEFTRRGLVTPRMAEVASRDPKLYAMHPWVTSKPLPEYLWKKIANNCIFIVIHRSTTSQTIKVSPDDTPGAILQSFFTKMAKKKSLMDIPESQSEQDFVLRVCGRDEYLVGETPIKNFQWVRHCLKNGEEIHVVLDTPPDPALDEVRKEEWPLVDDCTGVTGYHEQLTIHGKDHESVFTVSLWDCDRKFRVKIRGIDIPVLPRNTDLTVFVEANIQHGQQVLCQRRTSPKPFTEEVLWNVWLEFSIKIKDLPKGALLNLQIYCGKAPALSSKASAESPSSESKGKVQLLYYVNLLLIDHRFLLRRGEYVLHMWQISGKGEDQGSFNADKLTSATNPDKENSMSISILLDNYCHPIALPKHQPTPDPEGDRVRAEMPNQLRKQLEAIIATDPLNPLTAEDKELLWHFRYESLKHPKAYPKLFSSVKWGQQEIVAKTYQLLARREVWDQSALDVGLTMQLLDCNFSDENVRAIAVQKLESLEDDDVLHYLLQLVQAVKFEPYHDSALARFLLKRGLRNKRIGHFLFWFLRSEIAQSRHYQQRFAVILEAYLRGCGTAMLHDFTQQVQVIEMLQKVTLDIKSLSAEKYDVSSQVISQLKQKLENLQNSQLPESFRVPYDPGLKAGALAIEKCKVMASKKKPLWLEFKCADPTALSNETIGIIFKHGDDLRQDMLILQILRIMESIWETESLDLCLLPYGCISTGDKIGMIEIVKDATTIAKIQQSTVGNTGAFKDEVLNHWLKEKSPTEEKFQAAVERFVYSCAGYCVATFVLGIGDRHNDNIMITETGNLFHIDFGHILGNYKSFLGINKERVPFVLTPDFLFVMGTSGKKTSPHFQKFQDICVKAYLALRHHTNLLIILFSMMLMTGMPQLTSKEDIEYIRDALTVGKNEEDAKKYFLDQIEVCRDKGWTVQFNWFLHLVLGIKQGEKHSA

| Compound | IC50 (recombinant PI3 kinase γ; [4]) | IC50 (recombinant PI3 kinase α; [5]) | IC50 (recombinant PI3 kinase δ; [6]) | IC50 [1, 8] | IC50 (recombinant PI3 kinase γ; read-out: PI3 Kinase Inhibition IC50 values at stated Isozyme (nM) γ) | IC50 (recombinant PI3 kinase α; read-out: PI3 Kinase Inhibition IC50 values at stated Isozyme (nM) α) | IC50 (recombinant PI3 kinase δ; read-out: PI3 Kinase Inhibition IC50 values at stated Isozyme (nM) δ) | IC50 ([1]; dU937, read-out: Cellular Activity IC50 values (H2O2 induced pAkt (nM) D-U937 Cells)) | interconversion of separated atropisomers ([2]; ambient and elevated temperatures, over several days) | IC50 [1, 7] | atropisomerism by chiral stationary phase HPLC [2] | Cell Viability MTT Assay in D-U937 cells at 4 hr [3] | Cell Viability MTT Assay in D-U937 cells at 24 hr [3] |
| --- | --- | --- | --- | --- | --- | --- | --- | --- | --- | --- | --- | --- | --- |
| C#Cc1cccc2nc(Cn3nc(-c4ccc(O)cc4)c4c(N)ncnc43)n(Cc3ccccc3Cl)c(=O)c12 [Example 9, 2-((4-Amino-3-(4-hydroxyphenyl)-1H-pyrazolo[3,4-d]pyrimidin-1-yl)methyl)-3-(2-chlorobenzyl)-5-ethynyl quinazolin-4(3H)-one] | 50 to 1000 nM | 50 to 1000 nM | < 50 nM | – | – | – | – | – | – | < 10 nM | no evidence for atropisomerism was observed | − (− <30%) | − (− <30%) |
| C#Cc1cccc2nc(Cn3nc(-c4cccc(O)c4)c4c(N)ncnc43)n(Cc3cccc(Cl)c3)c(=O)c12 [Example 10, 2-((4-Amino-3-(3-hydroxyphenyl)-1H-pyrazolo[3,4-d]pyrimidin-1-yl)methyl)-3-(3-chlorobenzyl)-5-ethynyl quinazolin-4(3H)-one] | 50 to 1000 nM | 50 to 1000 nM | < 50 nM | – | – | – | – | – | – | < 10 nM | no evidence for atropisomerism was observed | − (− <30%) | − (− <30%) |
| C#Cc1cccc2nc(Cn3nc(-c4ccc(O)cc4)c4c(N)ncnc43)n(Cc3cccc(Cl)c3)c(=O)c12 [Example 11, 2-((4-Amino-3-(4-hydroxyphenyl)-1H-pyrazolo[3,4-d]pyrimidin-1-yl)methyl)-3-(3-chlorobenzyl)-5-ethynyl quinazolin-4(3H)-one] | 50 to 1000 nM | 50 to 1000 nM | < 50 nM | – | – | – | – | – | – | < 10 nM | no evidence for atropisomerism was observed | − (− <30%) | − (− <30%) |
| C#Cc1cccc2nc(Cn3nc(-c4cccc(O)c4)c4c(N)ncnc43)n(Cc3ccccc3F)c(=O)c12 [Example 12, 2-((4-Amino-3-(3-hydroxyphenyl)-1H-pyrazolo[3,4-d]pyrimidin-1-yl)methyl)-5-ethynyl-3-(2-fluorobenzyl) quinazolin-4(3H)-one] | 50 to 1000 nM | 50 to 1000 nM | < 50 nM | – | – | – | – | – | – | < 10 nM | no evidence for atropisomerism was observed | + (+ >30%) | − (− <30%) |
| C#Cc1cccc2nc(Cn3nc(-c4ccc(O)cc4)c4c(N)ncnc43)n(Cc3ccccc3F)c(=O)c12 [Example 13, 2-((4-Amino-3-(4-hydroxyphenyl)-1H-pyrazolo[3,4-d]pyrimidin-1-yl)methyl)-5-ethynyl-3-(2-fluorobenzyl) quinazolin-4(3H)-one] | 50 to 1000 nM | 50 to 1000 nM | < 50 nM | – | – | – | – | – | – | < 10 nM | no evidence for atropisomerism was observed | − (− <30%) | − (− <30%) |
| COc1cc(-c2nn(Cc3nc4cccc(C#CCCCC(=O)N5CCOCC5)c4c(=O)n3Cc3ccccc3Cl)c3ncnc(N)c23)ccc1O [Example 95, 2-((4-Amino-3-(4-hydroxy-3-methoxyphenyl)-1H-pyrazolo[3,4-d]pyrimidin-1-yl)methyl)-3-(2-chlorobenzyl)-5-(6-morpholino-6-oxohex-1-ynyl)quinazolin-4(3H)-one] | < 50 nM | 50 to 1000 nM | < 50 nM | < 10 nM | – | – | – | – | – | – | – | − (− <30%) | − (− <30%) |

Further lines, with some results ahead:

| IC50 (recombinant PI3 kinase γ; [4]) | IC50 (recombinant PI3 kinase α; [5]) | IC50 (recombinant PI3 kinase δ; [6]) | IC50 [1, 8] | IC50 (recombinant PI3 kinase γ; read-out: PI3 Kinase Inhibition IC50 values at stated Isozyme (nM) γ) | IC50 (recombinant PI3 kinase α; read-out: PI3 Kinase Inhibition IC50 values at stated Isozyme (nM) α) | IC50 (recombinant PI3 kinase δ; read-out: PI3 Kinase Inhibition IC50 values at stated Isozyme (nM) δ) | IC50 ([1]; dU937, read-out: Cellular Activity IC50 values (H2O2 induced pAkt (nM) D-U937 Cells)) | interconversion of separated atropisomers ([2]; ambient and elevated temperatures, over several days) | Compound | IC50 [1, 7] | atropisomerism by chiral stationary phase HPLC [2] | Cell Viability MTT Assay in D-U937 cells at 4 hr [3] | Cell Viability MTT Assay in D-U937 cells at 24 hr [3] |
| --- | --- | --- | --- | --- | --- | --- | --- | --- | --- | --- | --- | --- | --- |
| 50 to 1000 nM | 50 to 1000 nM | < 50 nM | < 10 nM | – | – | – | – | – | C#Cc1cccc2nc(Cn3nc(-c4ccc(O)cc4)c4c(N)ncnc43)n(Cc3cccc(OC)c3)c(=O)c12 [Example 14, 2-((4-Amino-3-(4-hydroxyphenyl)-1H-pyrazolo[3,4-d]pyrimidin-1-yl)methyl)-5-ethynyl-3-(3-methoxybenzyl)quinazolin-4(3H)-one] | – | no evidence for atropisomerism was observed | − (− <30%) | − (− <30%) |
| 50 to 1000 nM | > 1000 nM | < 50 nM | < 10 nM | 289 nM | 1970 nM | 4 nM | 0.57 nM | – | C#Cc1cccc2nc(Cn3nc(-c4cccc(O)c4)c4c(N)ncnc43)n(Cc3cccc(OC)c3)c(=O)c12 [Example 15, 2-((4-Amino-3-(3-hydroxyphenyl)-1H-pyrazolo[3,4-d]pyrimidin-1-yl)methyl)-5-ethynyl-3-(3-methoxybenzyl)quinazolin-4(3H)-one] | – | no evidence for atropisomerism was observed | − (− <30%) | − (− <30%) |
| 50 to 1000 nM | 50 to 1000 nM | < 50 nM | < 10 nM | – | – | – | – | – | C#Cc1cccc2nc(Cn3nc(-c4ccc(O)cc4)c4c(N)ncnc43)n(Cc3cccc(C(F)(F)F)c3)c(=O)c12 [Example 16, 2-((4-Amino-3-(4-hydroxyphenyl)-1H-pyrazolo[3,4-d]pyrimidin-1-yl)methyl)-5-ethynyl-3-(3-(trifluoromethyl)benzyl)quinazolin-4(3H)-one] | – | no evidence for atropisomerism was observed | − (− <30%) | − (− <30%) |
| > 1000 nM | 50 to 1000 nM | < 50 nM | < 10 nM | – | – | – | – | – | C#Cc1cccc2nc(Cn3nc(-c4cccc(O)c4)c4c(N)ncnc43)n(Cc3cccc(C(F)(F)F)c3)c(=O)c12 [Example 17, 2-((4-Amino-3-(3-hydroxyphenyl)-1H-pyrazolo[3,4-d]pyrimidin-1-yl)methyl)-5-ethynyl-3-(3-(trifluoromethyl)benzyl)quinazolin-4(3H)-one] | – | no evidence for atropisomerism was observed | − (− <30%) | − (− <30%) |
| 50 to 1000 nM | 50 to 1000 nM | < 50 nM | < 10 nM | – | – | – | – | – | C#Cc1cccc2nc(Cn3nc(-c4ccc(O)cc4)c4c(N)ncnc43)n(Cc3ccc(Cl)cc3)c(=O)c12 [Example 18, 2-((4-Amino-3-(4-hydroxyphenyl)-1H-pyrazolo[3,4-d]pyrimidin-1-yl)methyl)-3-(4-chlorobenzyl)-5-ethynyl quinazolin-4(3H)-one] | – | no evidence for atropisomerism was observed | − (− <30%) | − (− <30%) |
| 50 to 1000 nM | 50 to 1000 nM | < 50 nM | < 10 nM | – | – | – | – | – | C#Cc1cccc2nc(Cn3nc(-c4cccc(O)c4)c4c(N)ncnc43)n(Cc3ccc(S(C)(=O)=O)cc3)c(=O)c12 [Example 19, 2-((4-Amino-3-(3-hydroxyphenyl)-1H-pyrazolo[3,4-d]pyrimidin-1-yl)methyl)-5-ethynyl-3-(4-(methylsulfonyl)benzyl)quinazolin-4(3H)-one] | – | no evidence for atropisomerism was observed | − (− <30%) | − (− <30%) |
| < 50 nM | 50 to 1000 nM | < 50 nM | < 10 nM | – | – | – | – | – | CN1CCCN(C(=O)CCCC#Cc2cccc3nc(Cn4nc(-c5ccc(O)cc5)c5c(N)ncnc54)n(Cc4ccccc4Cl)c(=O)c23)CC1 [Example 93, 2-((4-Amino-3-(4-hydroxyphenyl)-1H-pyrazolo[3,4-d]pyrimidin-1-yl)methyl)-3-(2-chlorobenzyl)-5-(6-(4-methyl-1,4-diazepan-1-yl)-6-oxohex-1-ynyl)quinazolin-4(3H)-one] | – | – | − (− <30%) | − (− <30%) |
| – | – | – | – | – | – | – | – | no detectable signs of interconversion | Cc1ccccc1-n1c(Cn2nc(-c3cccc(O)c3)c3c(N)ncnc32)nc2cccc(C)c2c1=O [PIK294, reference compound] | – | 1:1 mixture of enantiomeric atropisomers | – | – |
